Measured values reported in PubChem BioAssay AID248 (DTP/NCI, 2004).
Several values for one entry are separate records, joined by “and”; a condition that tells them apart may be missing. Equal values may be shown once. Toxic doses and inconclusive results are not listed. Cut-off read from the data, not from the text of the source: active = T/C of 150% or more; inactive = T/C below 125%.

Tested on: L1210 leukemia ip in BDF1 mice, survival T/C
Assay: NCI In Vivo Anticancer Drug Screen. Data for tumor model L1210 Leukemia (intraperitoneal) in B6D2F1 (BDF1) mice
Conditions: endpoint: mean survival time, higher = longer survival
In short: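 Mice bearing the transplanted tumor received compound or vehicle. Survival of the treated group was divided by that of the vehicle-treated control group to give the ratio.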

[1] = dose: 100.0 mg/kg/injection, schedule: Q04DX003 (ip), vehicle: Klucel (hydroxypropylcellulose) (HPC)
[2] = dose: 200.0 mg/kg/injection, schedule: Q04DX003 (ip), vehicle: Klucel (hydroxypropylcellulose) (HPC)
[3] = dose: 400.0 mg/kg/injection, schedule: Q04DX003 (ip), vehicle: Klucel (hydroxypropylcellulose) (HPC)
[4] = dose: 100.0 mg/kg/injection, schedule: Q04DX003 (ip), vehicle: saline
[5] = dose: 200.0 mg/kg/injection, schedule: Q04DX003 (ip), vehicle: saline
[6] = dose: 400.0 mg/kg/injection, schedule: Q04DX003 (ip), vehicle: saline
[7] = dose: 100.0 mg/kg/injection, schedule: Q01DX009 (ip), vehicle: Klucel (hydroxypropylcellulose) (HPC)
[8] = dose: 200.0 mg/kg/injection, schedule: Q01DX009 (ip), vehicle: Klucel (hydroxypropylcellulose) (HPC)
[9] = dose: 400.0 mg/kg/injection, schedule: Q01DX009 (ip), vehicle: Klucel (hydroxypropylcellulose) (HPC)
[10] = dose: 100.0 mg/kg/injection, schedule: Q01DX009 (ip), vehicle: saline
[11] = dose: 100.0 mg/kg/injection, schedule: Q04DX003 (ip), vehicle: saline with Tween-80
[12] = dose: 200.0 mg/kg/injection, schedule: Q04DX003 (ip), vehicle: saline with Tween-80
[13] = dose: 100.0 mg/kg/injection, schedule: Q04DX002 (ip), vehicle: Klucel (hydroxypropylcellulose) (HPC)
[14] = dose: 200.0 mg/kg/injection, schedule: Q04DX002 (ip), vehicle: Klucel (hydroxypropylcellulose) (HPC)
[15] = dose: 400.0 mg/kg/injection, schedule: Q04DX002 (ip), vehicle: Klucel (hydroxypropylcellulose) (HPC)
[16] = dose: 400.0 mg/kg/injection, schedule: Q04DX003 (ip), vehicle: saline with Tween-80
[17] = dose: 400.0 mg/kg/injection, schedule: Q04DX002 (ip), vehicle: saline with Tween-80
[18] = dose: 200.0 mg/kg/injection, schedule: Q01DX009 (ip), vehicle: saline

Measured: T/C

O=c1ccn(CCC(COCc2ccccc2)COCc2ccccc2)c(=O)[nH]1
inactive: [1] 96 % of control | [2] 101 % of control | [3] 101 % of control

O=S1ON=C(c2ccccc2)N1c1ccccc1Cl (configuration not stated)
inactive: [1] 93 % of control | [2] 93 % of control | [3] 88 % of control

C=CCN=C(N)C(N)=NCC=C
inactive: [4] 96 % of control | [5] 101 % of control | [6] 103 % of control

Cc1ccc(S(=O)(=O)N(CC(=O)O)c2cccc(Cl)c2)cc1
inactive: [1] 91 % of control | [2] 96 % of control | [3] 100 % of control

CC(C)C1NC(=O)C2CCCN2C1=O (configuration not stated)
inactive: dose: 100.0 mg/kg/injection, schedule: Q04DX003 (ip), vehicle: saline sonified 98 % of control | dose: 200.0 mg/kg/injection, schedule: Q04DX003 (ip), vehicle: saline sonified 96 % of control | dose: 400.0 mg/kg/injection, schedule: Q04DX003 (ip), vehicle: saline sonified 97 % of control

CCOC(=O)Nc1ccccc1OCC
inactive: [7] 96 % of control | [8] 95 % of control | [9] 96 % of control

S=P(NCCNP(=S)(N1CC1)N1CC1)(N1CC1)N1CC1
inactive: dose: 1.5 mg/kg/injection, schedule: Q01DX015 (ip), vehicle: saline 96 % of control | dose: 3.0 mg/kg/injection, schedule: Q01DX015 (ip), vehicle: saline 98 % of control | dose: 6.0 mg/kg/injection, schedule: Q01DX015 (ip), vehicle: saline 101 % of control | dose: 12.0 mg/kg/injection, schedule: Q01DX009 (ip), vehicle: carboxymethylcellulose (CMC) 104 % of control | dose: 12.0 mg/kg/injection, schedule: Q01DX015 (ip), vehicle: saline 102 % of control | dose: 12.5 mg/kg/injection, schedule: Q01DX009 (ip), vehicle: Klucel (hydroxypropylcellulose) (HPC) 108 % of control | dose: 12.5 mg/kg/injection, schedule: Q01DX009 (ip), vehicle: saline 112 % of control | dose: 25.0 mg/kg/injection, schedule: Q01DX009 (ip), vehicle: Klucel (hydroxypropylcellulose) (HPC) 120 % of control | dose: 25.0 mg/kg/injection, schedule: Q01DX009 (ip), vehicle: carboxymethylcellulose (CMC) 121 % of control | dose: 50.0 mg/kg/injection, schedule: Q01DX009 (ip), vehicle: Klucel (hydroxypropylcellulose) (HPC) 97 % of control | dose: 50.0 mg/kg/injection, schedule: Q01DX009 (ip), vehicle: carboxymethylcellulose (CMC) 115 % of control | dose: 100.0 mg/kg/injection, schedule: Q01DX001 (ip), vehicle: saline 106 % of control | dose: 100.0 mg/kg/injection, schedule: Q01DX009 (ip), vehicle: carboxymethylcellulose (CMC) 109 % of control | [10] 120 % of control | dose: 200.0 mg/kg/injection, schedule: Q01DX001 (ip), vehicle: saline 104 % of control | dose: 400.0 mg/kg/injection, schedule: Q01DX001 (ip), vehicle: saline 120 % of control

CCNC(=S)NNc1ccccc1
inactive: [11] 100 % of control | [12] 96 % of control

O=S(=O)(c1ccccc1)N1CN(S(=O)(=O)c2ccccc2)CN(S(=O)(=O)c2ccccc2)C1
inactive: [13] 93 % of control | [14] 100 % of control | [15] 96 % of control

CSCCSc1ncnc2nc[nH]c12
inactive: [11] 107 % of control | [12] 102 % of control | [16] 101 % of control

CN(C)C(=S)SCC(=O)O
inactive: dose: 100.0 mg/kg/injection, schedule: Q04DX002 (ip), vehicle: saline with Tween-80 100 % of control | dose: 200.0 mg/kg/injection, schedule: Q04DX002 (ip), vehicle: saline with Tween-80 96 % of control | [17] 100 % of control

NS(=O)(=O)c1ccccc1
inactive: dose: 100.0 mg/kg/injection, schedule: Q04DX002 (ip), vehicle: saline 105 % of control | [1] 101 % of control | dose: 200.0 mg/kg/injection, schedule: Q04DX002 (ip), vehicle: saline 105 % of control | [2] 103 % of control | dose: 400.0 mg/kg/injection, schedule: Q04DX002 (ip), vehicle: saline 109 % of control | [3] 92 % of control

CNC(=O)Oc1ccc(Br)cc1Br
inactive: [7] 101 % of control | [8] 100 % of control

Nc1c(Cl)ncnc1Nc1cccc(C(F)(F)F)c1
inactive: [1] 92 % of control | [2] 97 % of control | [3] 104 % of control

O=c1[nH]cnc2c1ncn2Cc1cccc2ccccc12
inactive: [13] 94 % of control | [14] 94 % of control | [15] 94 % of control

c1ccc(C(c2ccccc2)[Si](c2ccccc2)(C(c2ccccc2)c2ccccc2)C(c2ccccc2)c2ccccc2)cc1
inactive: dose: 25.6 mg/kg/injection, schedule: Q04DX002 (ip), vehicle: saline with Tween-80 96 % of control | dose: 37.5 mg/kg/injection, schedule: Q01DX009 (ip), vehicle: Klucel (hydroxypropylcellulose) (HPC) 93 % of control | dose: 64.0 mg/kg/injection, schedule: Q04DX002 (ip), vehicle: saline with Tween-80 100 % of control | dose: 75.0 mg/kg/injection, schedule: Q01DX009 (ip), vehicle: Klucel (hydroxypropylcellulose) (HPC) 88 % of control | [11] 94 % of control | dose: 160.0 mg/kg/injection, schedule: Q04DX002 (ip), vehicle: saline with Tween-80 93 % of control | [12] 100 % of control | [17] 104 % of control | [16] 94 % of control

O=C1CCC(=O)C12CCNCC2
inactive: [10] 97 % of control | [4] 100 % of control | [18] 104 % of control | [5] 88 % of control | [6] 107 % of control

C1CCC2(CC1)OOC1(CCCCC1)OOC1(CCCC1)OO2
inactive: dose: 50.0 mg/kg/injection, schedule: Q01DX009 (ip), vehicle: saline with Tween-80 104 % of control | dose: 100.0 mg/kg/injection, schedule: Q01DX009 (ip), vehicle: saline with Tween-80 96 % of control | dose: 200.0 mg/kg/injection, schedule: Q01DX009 (ip), vehicle: saline with Tween-80 110 % of control

CCOc1ccc(/C=C/c2ccc(OCC)cc2)cc1
inactive: [7] 90 % of control | [8] 90 % of control | [9] 93 % of control

CCCCCCCCCCCCCCCCNC(=S)NCCCCCCCCCCCCCCCC
inactive: dose: 25.0 mg/kg/injection, schedule: Q04DX002 (ip), vehicle: Klucel (hydroxypropylcellulose) (HPC) 93 % of control | dose: 50.0 mg/kg/injection, schedule: Q04DX002 (ip), vehicle: Klucel (hydroxypropylcellulose) (HPC) 90 % of control | [13] 102 % of control | [1] 95 % of control | [2] 101 % of control | [3] 88 % of control

CCc1c(C#N)oc2ccc(O)cc12
inactive: [7] 96 % of control | [13] 95 % of control | [8] 91 % of control | [14] 101 % of control | [15] 95 % of control

CN(C)P(N)(N)=O
inactive: [10] 101 % of control | [1] 97 % of control | [18] 97 % of control | [2] 101 % of control | dose: 400.0 mg/kg/injection, schedule: Q01DX009 (ip), vehicle: saline 103 % of control | [3] 100 % of control

CCCCC(/C=C1/CCCCC1=O)CC (configuration not stated)
inactive: [7] 97 % of control | [1] 92 % of control | [8] 97 % of control | [2] 103 % of control | [3] 97 % of control

CN(C)C(CC(=O)c1ccccc1)C(=O)O (configuration not stated)
inactive: [4] 94 % of control | [5] 96 % of control

CCc1c(CC(=O)O)c2cc(C)ccc2n1Cc1ccc(Cl)cc1
inactive: dose: 12.5 mg/kg/injection, schedule: Q01DX Z (ip), vehicle: saline 95 % of control and 96 % of control | dose: 24.0 mg/kg/injection, schedule: Q01DX Z (ip), vehicle: carboxymethylcellulose (CMC) 91 % of control | dose: 25.0 mg/kg/injection, schedule: Q01DX Z (ip), vehicle: saline 103 % of control and 100 % of control | dose: 36.0 mg/kg/injection, schedule: Q01DX Z (ip), vehicle: carboxymethylcellulose (CMC) 92 % of control | dose: 50.0 mg/kg/injection, schedule: Q01DX Z (ip), vehicle: saline 113 % of control and 102 % of control | dose: 54.0 mg/kg/injection, schedule: Q01DX Z (ip), vehicle: carboxymethylcellulose (CMC) 95 % of control | dose: 100.0 mg/kg/injection, schedule: Q01DX Z (ip), vehicle: saline 95 % of control and 93 % of control | dose: 162.0 mg/kg/injection, schedule: Q01DX Z (ip), vehicle: carboxymethylcellulose (CMC) 94 % of control | dose: 324.0 mg/kg/injection, schedule: Q01DX Z (ip), vehicle: carboxymethylcellulose (CMC) 88 % of control
